The nature of data set [1]: Permeability coefficient in HPC/cholesterol extruded vesicles. The settings on record: not told, permeability coefficient P, 60/40 HPC/cholesterol extruded vesicles (Table II).
Procedure: ^e in 60/40 (mol/mol) HPC/cholesterolextruded vesicles, at 25°
^e in 60/40 (mol/mol) HPC/cholesterolextruded vesicles.
The conditions of data set [2]: Table II; cited from earlier work.
A short description of data set [3]: Loading and calcium ionophore (A23187)-promoted release of entrapped nalidixic acid. As to the method: (FIG. 8, solid line) and 60° C. (broken line), respectively.
The experiment was carried out at two different temperatures to investigate how changes in lipid phase (i.e., gel versus liquid-crystalline) affects the penetration of molecules into the bilayer. When the suspension was incubated at 25° C.
A calcium ionophore, A23187, (10 micromolar) was added at either t=700 s (25° C.; FIG. 8--solid line) or at 350 s (60° C.; FIG. 8--broken line), and the fluorescence was monitored over the course of the experiment.

The conditions of data set [4]: n-octanol/water, cited from earlier work.
The conditions of data set [5]: not told, cited from earlier work.
For data set [6] the following is noted: pH 9.

Where two headings read alike, the source gives them in different places.

One may read the Papp as a coefficient for how fast a substance crosses the barrier. One may read the pKa as the pH at which an ionisable group is half protonated. On to `CCn1cc(C(=O)O)c(=O)c2ccc(C)nc21` [nalidixic acid], for which the Papp turned out to be 0.014 ×10⁻⁶ cm/s in data set [1] (25° C.) and 0.17 ×10⁻⁶ cm/s in data set [1] (60° C.). Besides, in data set [2], the pKa is listed as 6.13. Further, the “loading t1/2” value is listed as 84 s in data set [3] (25° C.) and 7 s in data set [3] (60° C.). Also, in data set [3] (60° C. versus 25° C.), the “enhancement of loading rate” value is “one order of magnitude”.
On to 5(6)-carboxyfluorescein, for which the results for the “partition coefficient Kp” value in data set [4] (pH 6.9) and in data set [4] (pH 8) were 2.8 × 10^-3 and 6.0 × 10^-5, respectively. For the same compound, the “permeability coefficient P” value in data set [5] (pH 7) is 8.1e-11 cm/s; in data set [5] (pH 8.2), 7.2e-13 cm/s.
In the case of `O=S(=O)(O)c1cc(O)c2ccc3c(S(=O)(=O)O)cc(S(=O)(=O)O)c4ccc1c2c34` [pyranine, 8-Hydroxypyrene-1,3,6-trisulfonic acid], in data set [6], the “n-octanol/water partition coefficient Kp” value is on record as < 3 × 10^-5.

The values above are taken from patent publication US5939096A, “Liposome drug-loading method and composition” (priority 1997, dated 1999).
